Experimental data: US20170100489A1, “POLYETHYLENE GLYCOL-MODIFIED INTEGRIN BLOCKER HM-3 AND USE THEREOF” (HANMEI XU, priority 2012, published 2017)
Read-outs that look alike come from different tables or passages of the source. Marks after values point to notes of the source that are not given here. Where no end group is shown, it is not given here. mPEG‑SC20k = methoxy polyethylene glycol-succinimidyl-carbonate, 20000 Da

Tests used:
[1] = test system: human gastric cancer MGC803 xenograft tumors; test: Tumor growth inhibition, MGC803 xenograft; conditions: for Rate of inhibiting tumors / Tumor weight: Once 3 days
Method: (§1) Picked the tumor tissue of vigorous growth and was cut into pieces of about 1.5 mm^3. Under sterile conditions, the tumor tissue was inoculated subcutaneously on the right of nude mice. Tumor diameter was measured with a vernier caliper. The animals which had tumors with a size of 100-200 mm^3 were randomly divided into groups. The effect of polypeptide on anti-tumor was dynamically observed through the method of measuring tumor diameter. The times of measuring tumor diameter were once 2 days, and meantime, weighed mice. The mice in experimental group were infused polypeptide through tail vein, once 3 days. The mice in the placebo group were injected saline with the same volume. Tumor volume formula:
(§2) a, b respectively represent the length and width. According to the result of measurement, calculate the relative tumor volume. Evaluation of antitumor activity is relative tumor proliferation rate T/C(%). The formula is as follows: T/C(%)^=TRTV/CRTV×100%
(§3) TRTV: Treatment group RTV; CRTV: negative control group RTV

[2] = test system: human testicular cancer 5637 xenograft tumors; test: Tumor growth inhibition, 5637 xenograft; conditions: for Rate of inhibiting tumors / Tumor weight: Once 3 days
Method: Human testicular cancer 5637 cell lines in logarithmic growth phase were picked, and made into 5×10^7/ml cell suspension of under sterile conditions, and then 0.1 ml suspension was inoculated subcutaneously at the right armpit of nude mice. Tumor diameter was measured with a vernier caliper. The animals which had tumors with a size of 100-200 mm^3 were randomly divided into groups. The effect of polypeptide on anti-tumor was dynamically observed through the method of measuring tumor diameter. The times of measuring tumor diameter were once 2 days, and meantime, weighed mice. The mice in experimental group were infused polypeptide through tail vein. […] After administration, all mice were sacrificed. Stripped the tumors and weighed.

[3] = test system: human ovarian cancer SK-OV-3 xenograft tumors; test: Tumor growth inhibition, SK-OV-3 xenograft; conditions: for Rate of inhibiting tumors / Tumor weight: Once 3 days
Method: Human ovarian cancer SK-OV-3 cell lines in logarithmic growth phase were picked, and made into 5×10^7/ml cell suspension of under sterile conditions, and then 0.1 ml suspension was inoculated subcutaneously at the right armpit of nude mice. Tumor diameter was measured with a vernier caliper. The animals which had tumors with a size of 100-200 mm^3 were randomly divided into groups. The effect of polypeptide on anti-tumor was dynamically observed through the method of measuring tumor diameter. The times of measuring tumor diameter were once 2 days, and meantime, weighed mice. The mice in experimental group were infused polypeptide through tail vein. The mice in the placebo group were injected saline with the same volume, once 1 day; Cisplatin group: 10 mg/kg, once 1 week; Endostar group: 2.5 mg/kg, once 1 day; The groups of high, intermediate and low polypeptide: 6, 3, 1.5 mg/kg, respectively, once 1 day. After administration, all mice were sacrificed. Stripped the tumors and weighed.

[4] = test system: human pancreatic cancer SW-1990 xenograft tumors; test: Tumor growth inhibition, SW-1990 xenograft; conditions: for Rate of inhibiting tumors / Tumor weight: Once 3 days
Method: Picked the tumor tissue of vigorous growth and was cut into pieces of about 1.5 mm^3. Under sterile conditions, the tumor tissue was inoculated subcutaneously on the right of nude mice. Tumor diameter was measured with a Vernier caliper. The animals which had tumors with a size of 100-200 mm^3 were randomly divided into groups. The effect of polypeptide on anti-tumor was dynamically observed through the method of measuring tumor diameter. The times of measuring tumor diameter were once 2 days, and meantime, weighed mice. The mice in experimental group were infused polypeptide through tail vein, once 3 days. The mice in the placebo group were injected saline with the same volume.
as §2
TRTV:Treatment group RTV; CRTV: negative control group RTV

[5] = test system: human prostate cancer DU-145 xenograft tumors; test: Tumor growth inhibition, DU-145 xenograft; conditions: for Rate of inhibiting tumors / Tumor weight: Once 3 days
Method: Human prostate cancer DU-145 cell lines in logarithmic growth phase were picked, and made into 5×10^7/ml cell suspension of under sterile conditions, and then 0.1 ml suspension was inoculated subcutaneously at the right armpit of nude mice. Tumor diameter was measured with a vernier caliper. The animals which had tumors with a size of 100-200 mm^3 were randomly divided into groups. The effect of polypeptide on anti-tumor was dynamically observed through the method of measuring tumor diameter. The times of measuring tumor diameter were once 2 days, and meantime, weighed mice. The mice in experimental group were infused polypeptide through tail vein. The mice in the placebo group were injected saline with the same volume, once 1 day; Cisplatin group: 10 mg/kg, once 1 week; Endostar group: 2.5 mg/kg, once 1 day; The groups of high, intermediate and low polypeptide: 6, 3, 1.5 mg/kg, respectively, once 1 day. After administration, all mice were sacrificed. Stripped the tumors and weighed.

[6] = test system: human nasopharyngeal cancer CNE xenograft tumors; test: Tumor growth inhibition, CNE xenograft; conditions: for Rate of inhibiting tumors / Tumor weight: Once 3 days
Method: as §1
a, b respectively represent the length and width. According to the result of measurement, calculate the relative tumor volume. Evaluation of antitumor activity is relative tumor proliferation rate T/C(%). The formula is as follows: T/C(%)^−TRTV/CRTV×100%

[7] = test system: sarcoma HT-1080 xenograft tumors; test: Tumor growth inhibition, HT-1080 xenograft; conditions: 36.7 mg/kg
Method: Tumor diameter was measured with a vernier caliper. […] After administration, all mice were sacrificed. Stripped the tumors and weighed.

[8] = Pharmacokinetics of mPEG-SC20k-HM-3 and HM-3 in rats (plasma concentration by ELISA); conditions: SD rats, intravenous
Method: (§4) SD rats were randomly divided into six groups with the same number for male and female. Take three groups were administered intravenously integrin antagonist polypeptide with a high dose of 52 mg/kg (equivalent to HM-3 4.2 mg/kg), an intermediate dose of 26 mg/kg (equivalent to HM-3 2.1 mg/kg), a low-dose of 13 mg/kg (equivalent to HM-3 1.05 mg/kg). The other 3 groups were injected HM-3 with a high dose of 4.2 mg/kg, an intermediate dose of 2.1 mg/kg, a low doses of 1.05 mg/kg. Collected whole blood 0.5 ml once from the orbital venous plexus after 0.5 h, 1 h, 2 h, 3 h, 6 h, 12 h, 24 h, 48 h, 72 h, 96 h, 108 h, 132 h of drug administration, and applied heparin to get the effect of anti-coagulation. 12000 rpm/2 min centrifuged plasma. Draw supernatant 200 μl and 80° C. preheated PBS (0.05 M pH7.4) buffer 600 μl and mixed. Bath in the 80° C. water for 30 min. Centrifuged 2 min at 12000 rpm, and collected the supernatant, and stored in the condition of −20° C. Dissolved at room temperature, measured integrin antagonist peptide plasma concentration by ELISA.

[9] = test system: human breast cancer MDA-MB-231 xenograft tumors; test: Tumor growth inhibition, MDA-MB-231 xenograft; conditions: for Rate of inhibiting tumors / Tumor weight: Once 3 days
Method: Picked the tumor tissue of vigorous growth and was cut into pieces of about 1.5 mm^3. Under sterile conditions, the tumor tissue was inoculated subcutaneously on the right of nude mice. Tumor diameter was measured with a vernier caliper. The animals which had tumors with a size of 100-200 mm^3 were randomly divided into groups. The effect of polypeptide on anti-tumor was dynamically observed through the method of measuring tumor diameter. The times of measuring tumor diameter were once 2 days, and meantime, weighed mice. The mice in experimental group were infused polypeptide through tail vein, once 3 days. The mice in the placebo group were injected saline with the same volume. Tumor volume formula: TV=0.52×a×b^2
as §2, §3

[10] = test system: human thyroid cancer SW-579 xenograft tumors; test: Tumor growth inhibition, SW-579 xenograft; conditions: for Rate of inhibiting tumors / Tumor weight: Once 3 day
Method: as §1, §2

[11] = test system: human colon cancer HT-29 xenograft tumors; test: Tumor growth inhibition, HT-29 xenograft; conditions: for Rate of inhibiting tumors / Tumor weight: Once 3 days
Method: Human colon cancer HT-29 cell lines in logarithmic growth phase were picked, and made into 5×10^7/ml cell suspension of under sterile conditions, and then 0.1 ml suspension was inoculated subcutaneously at the right armpit of nude mice. Tumor diameter was measured with a vernier caliper. The animals which had tumors with a size of 100-200 mm^3 were randomly divided into groups. The effect of polypeptide on anti-tumor was dynamically observed through the method of measuring tumor diameter. The times of measuring tumor diameter were once 2 days, and meantime, weighed mice. The mice in experimental group were infused polypeptide through tail vein. The mice in the placebo group were injected saline with the same volume, once 1 day; Taxol group: 10 mg/kg, once 1 week; Endostar group: 2.5 mg/kg, once 1 day; The groups of high, intermediate and low polypeptide: 6, 3, 1.5 mg/kg, respectively, once 1 day. After administration, all mice were sacrificed. Stripped the tumors and weighed.

[12] = test system: human lung cancer H460 xenograft tumors; test: Tumor growth inhibition, H460 xenograft; conditions: for Rate of inhibiting tumors / Tumor weight: Once 3 days
Method: as §1, §2, §3

[13] = test system: human esophageal cancer Ec109 xenograft tumors; assay type: in vivo, nude mice; conditions: for Rate of inhibiting tumors / Tumor weight: Once 3 days
Method: Tumor diameter was measured with a vernier caliper. […] Tumor volume formula: […]
a, b respectively represent the length and width. […] The formula is as follows: […]
TRTV: Treatment Group RTV; CRTV: Negative Control Group RTV

[14] = rat, in vivo, iv
Method: as §4

[15] = high, 36.7 mg/kg, listed as polypeptide
[16] = intermediate, 18.75 mg/kg, listed as polypeptide
[17] = low, 9.38 mg/kg, listed as polypeptide

Substance: mPEG-SC20k-Ile-Val-Arg-Arg-Ala-Asp-Arg-Ala-Ala-Val-Pro-Gly-Gly-Gly-Gly-Arg-Gly-Asp ({mPEG‑SC20k}-IVRRADRAAVPGGGGRGD) [mPEG-SC20k-HM-3]
- inhibition of tumor growth compared with negative control ([1]; 36.7 mg/kg, P<0.05): significant inhibition role
- Rate of inhibiting tumors ([1]; high, 36.7 mg/kg): 73.42%*
- Tumor weight ([1]; high, 36.7 mg/kg): 0.192 g
- Rate of inhibiting tumors [1, 15]: 73.42%
- Rate of inhibiting tumors ([1]; intermediate, 18.75 mg/kg): 69.86%
- Tumor weight ([1]; intermediate, 18.75 mg/kg): 0.218 g
- Rate of inhibiting tumors [1, 16]: 69.86%
- Rate of inhibiting tumors ([1]; low, 9.38 mg/kg): 59.57%
- Tumor weight ([1]; low, 9.38 mg/kg): 0.292 g
- Rate of inhibiting tumors [1, 17]: 59.57%
- inhibition of tumor growth compared with negative control ([2]; 36.7 mg/kg, P<0.05): significant inhibition role
- Rate of inhibiting tumors ([2]; high, 36.7 mg/kg): 60.20%*
- Tumor weight ([2]; high, 36.7 mg/kg): 0.802 g
- Rate of inhibiting tumors [2, 15]: 60.20%
- Rate of inhibiting tumors ([2]; intermediate, 18.75 mg/kg): 51.32%
- Tumor weight ([2]; intermediate, 18.75 mg/kg): 0.981 g
- Rate of inhibiting tumors [2, 16]: 51.32%
- Rate of inhibiting tumors ([2]; low, 9.38 mg/kg): 50.99%
- Tumor weight ([2]; low, 9.38 mg/kg): 0.988 g
- Rate of inhibiting tumors [2, 17]: 50.99%
- inhibition of tumor growth compared with negative control ([3]; 36.7 mg/kg, P<0.05): significant inhibition role
- Rate of inhibiting tumors ([3]; high, 36.7 mg/kg): 50.40%*
- Tumor weight ([3]; high, 36.7 mg/kg): 0.627 g
- Rate of inhibiting tumors [3, 15]: 50.40%
- Rate of inhibiting tumors ([3]; intermediate, 18.75 mg/kg): 44.62%
- Tumor weight ([3]; intermediate, 18.75 mg/kg): 0.700 g
- Rate of inhibiting tumors [3, 16]: 44.62%
- Rate of inhibiting tumors ([3]; low, 9.38 mg/kg): 42.33%
- Tumor weight ([3]; low, 9.38 mg/kg): 0.730 g
- Rate of inhibiting tumors [3, 17]: 42.33%
- inhibition of tumor growth compared with negative control ([4]; 36.7 mg/kg, P<0.05): significant inhibition role
- Rate of inhibiting tumors ([4]; high, 36.7 mg/kg): 67.76%*
- Tumor weight ([4]; high, 36.7 mg/kg): 0.446 g
- Rate of inhibiting tumors [4, 15]: 67.76%
- Rate of inhibiting tumors ([4]; intermediate, 18.75 mg/kg): 64.55%
- Tumor weight ([4]; intermediate, 18.75 mg/kg): 0.491 g
- Rate of inhibiting tumors [4, 16]: 64.55%
- Rate of inhibiting tumors ([4]; low, 9.38 mg/kg): 50.40%
- Tumor weight ([4]; low, 9.38 mg/kg): 0.687 g
- Rate of inhibiting tumors [4, 17]: 50.40%
- inhibition of tumor growth compared with negative control ([5]; 36.7 mg/kg, P<0.05): significant inhibition role
- Rate of inhibiting tumors ([5]; high, 36.7 mg/kg): 77.46%*
- Tumor weight ([5]; high, 36.7 mg/kg): 0.417 g
- Rate of inhibiting tumors [5, 15]: 77.46%
- Rate of inhibiting tumors ([5]; intermediate, 18.75 mg/kg): 67.48%
- Tumor weight ([5]; intermediate, 18.75 mg/kg): 0.603 g
- Rate of inhibiting tumors [5, 16]: 67.48%
- Rate of inhibiting tumors ([5]; low, 9.38 mg/kg): 57.87%
- Tumor weight ([5]; low, 9.38 mg/kg): 0.781 g
- Rate of inhibiting tumors [5, 17]: 57.87%
- inhibition of tumor growth compared with negative control ([6]; 36.7 mg/kg, P<0.05): significant inhibition role
- toxic and side effects ([6]; 36.7 mg/kg, compared with positive cisplatin group): no obvious toxic and side effects
- Rate of inhibiting tumors ([6]; high, 36.7 mg/kg): 68.22%*
- Tumor weight ([6]; high, 36.7 mg/kg): 0.382 g
- Rate of inhibiting tumors [6, 15]: 68.22%
- Rate of inhibiting tumors ([6]; intermediate, 18.75 mg/kg): 66.19%
- Tumor weight ([6]; intermediate, 18.75 mg/kg): 0.406 g
- Rate of inhibiting tumors ([6]; low, 9.38 mg/kg): 55.32%
- Tumor weight ([6]; low, 9.38 mg/kg): 0.537 g
- Rate of inhibiting tumors [6, 17]: 55.32%
- Rate of inhibiting tumors ([7]; Once 3 days): 65.04%*
- Tumor weight ([7]; Once 3 days): 0.678 g
- Rate of inhibiting tumors ([7]; Once 3 days, listed as polypeptide): 65.04%
- inhibition of tumor growth compared with negative control ([7]; P<0.05): significant inhibition role
- CL [8]: 0.118 mL/min/kg
- inhibition of tumor growth compared with negative control ([9]; 36.7 mg/kg, P<0.05): significant inhibition role
- Rate of inhibiting tumors ([9]; high, 36.7 mg/kg): 63.05%*
- Tumor weight ([9]; high, 36.7 mg/kg): 0.459 g
- Rate of inhibiting tumors [9, 15]: 63.05%
- Rate of inhibiting tumors ([9]; intermediate, 18.75 mg/kg): 59.11%
- Tumor weight ([9]; intermediate, 18.75 mg/kg): 0.508 g
- Rate of inhibiting tumors [9, 16]: 59.11%
- Rate of inhibiting tumors ([9]; low, 9.38 mg/kg): 51.01%
- Tumor weight ([9]; low, 9.38 mg/kg): 0.609 g
- Rate of inhibiting tumors [9, 17]: 51.01%
- inhibition of tumor growth compared with negative control ([10]; 36.7 mg/kg, P<0.05): significant inhibition role
- toxic and side effects ([10]; 36.7 mg/kg, compared with positive 5-Fu group): no obvious toxic and side effects
- Rate of inhibiting tumors ([10]; high, 36.7 mg/kg): 67.63%*
- Tumor weight ([10]; high, 36.7 mg/kg): 0.406 g
- Rate of inhibiting tumors [10, 15]: 67.63%
- Rate of inhibiting tumors ([10]; intermediate, 18.75 mg/kg): 60.56%
- Tumor weight ([10]; intermediate, 18.75 mg/kg): 0.494 g
- Rate of inhibiting tumors [10, 16]: 60.56%
- Rate of inhibiting tumors ([10]; low, 9.38 mg/kg): 58.42%
- Tumor weight ([10]; low, 9.38 mg/kg): 0.521 g
- Rate of inhibiting tumors [10, 17]: 58.42%
- inhibition of tumor growth compared with negative control ([11]; 36.7 mg/kg, P<0.05): significant inhibition role
- Rate of inhibiting tumors ([11]; high, 36.7 mg/kg): 55.98%*
- Tumor weight ([11]; high, 36.7 mg/kg): 0.493 g
- Rate of inhibiting tumors [11, 15]: 55.98%
- Rate of inhibiting tumors ([11]; intermediate, 18.75 mg/kg): 45.45%
- Tumor weight ([11]; intermediate, 18.75 mg/kg): 0.611 g
- Rate of inhibiting tumors [11, 16]: 45.45%
- Rate of inhibiting tumors ([11]; low, 9.38 mg/kg): 37.05%
- Tumor weight ([11]; low, 9.38 mg/kg): 0.705 g
- Rate of inhibiting tumors [11, 17]: 37.05%
- inhibition of tumor growth compared with negative control ([12]; 36.7 mg/kg, P<0.05): significant inhibition role
- Rate of inhibiting tumors ([12]; high, 36.7 mg/kg): 66.45%*
- Tumor weight ([12]; high, 36.7 mg/kg): 0.266 g
- Rate of inhibiting tumors [12, 15]: 66.45%
- Rate of inhibiting tumors ([12]; intermediate, 18.75 mg/kg): 55.37%
- Tumor weight ([12]; intermediate, 18.75 mg/kg): 0.354 g
- Rate of inhibiting tumors [12, 16]: 55.37%
- Rate of inhibiting tumors ([12]; low, 9.38 mg/kg): 54.28%
- Tumor weight ([12]; low, 9.38 mg/kg): 0.363 g
- Rate of inhibiting tumors [12, 17]: 54.28%
- inhibition of tumor growth compared with negative control ([13]; 36.7 mg/kg, P<0.05): significant inhibition role
- Rate of inhibiting tumors ([13]; high, 36.7 mg/kg): 62.24%*
- Tumor weight ([13]; high, 36.7 mg/kg): 0.183 g
- Rate of inhibiting tumors [13, 15]: 62.24%
- Rate of inhibiting tumors ([13]; intermediate, 18.75 mg/kg): 55.66%
- Tumor weight ([13]; intermediate, 18.75 mg/kg): 0.318 g
- Rate of inhibiting tumors [13, 16]: 55.66%
- Rate of inhibiting tumors ([13]; low, 9.38 mg/kg): 50.16%
- Tumor weight ([13]; low, 9.38 mg/kg): 0.406 g
- Rate of inhibiting tumors [13, 17]: 50.16%
- t1/2β ([14]; both, SD): 20.13 h
- t1/2p [14]: 20.13 h
- t1/2β [14]: 20.13 h
